Non-standard residues stand in square brackets, D forms with d. Residues, ends and D or L forms follow the SMILES beside them. Hyp = O=C(O)[C@@H]1C[C@@H](O)CN1

Data set [1] in a line: Method for predicting global Tm of collagen peptides from amino acid sequence. Conditions: observed minus predicted, peptides of Table 3. The protocol:
The global thermal stability of homotrimeric triple helical peptides with length of at least 6 tripeptide units and, in most cases, containing 10 tripeptide units was determined as follows.
For the total number of triplets n in a given peptide, the base Tm^0(n) for (Pro-Hyp-Gly) or (Pro-Pro-Gly)n was calculated from the length dependence (Equation 1), including any effect of blocking groups;
The melting temperature value was decreased for every triplet in the sequence that was not Gly-Pro-Hyp, subtracting a value of ΔTm^GXY (Table 1). The N-terminal and C-terminal tripeptide units were excluded from the calculation due to the staggering of the chains and the disorder for the peptide ends (Bella et al. (1994) supra; Li, et al. (1993) Biochemistry 32:7377-7387; Kramer, et al. (2001) J. Mol. Biol. 301:1191-1205).
The resulting value for the peptide melting temperature was adjusted using the ΔTm^int values for interactions between neighboring tripeptides (Table 2).
The method was formulated as follows.
To extrapolate the dependence of the Tm of the host peptides on peptide length, the experimental values for (Pro-Hyp-Gly)n and (Pro-Pro-Gly)n versus n, where n is the number of tripeptide units, were fit to the exponential decay function
[formula] where Tm^0(n) is defined as the base thermal stability of the repeating polytripeptide standard, Tm^max is the maximum melting temperature, and the constant n0 represents the length of the repeating peptide with Tm=0.

For data set [2] the following is noted: for Tm^obs: peptide of Table 3, defined standard conditions. The gist of the method: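 Host-guest peptides in Gly-Xaa1-Hyp or Gly-Pro-Xaa2 contexts were melted at 1 mg/ml in PBS, pH 7.0. The heating rate averaged 0.1° C./minute, and residue propensity was derived from the Tm values.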
A short description of data set [3]: Predicted Tm of guest triplets/hexapeptides by additivity of Xaa1 and Xaa2 residues (Equation 1). Conditions: host-guest collagen-like peptides. The protocol:
A complete table of the stability for all Gly-Xaa1-Xaa2 triplets was constructed using the experimental values for all frequent sequences and the predicted values for all others (Table 1; experimental values are in bold). Predicted values were calculated on the basis of additivity of residues in the Xaa1 and Xaa2 position (Persikov, et al. (2002) supra; Equation 1). Tm^GX^1^X^2=Tm^GX^1^O+Tm^GPX^2−Tm^GPO (1)
The predicted values gave good agreement (within ±3° C.) for the Gly-Ala-Ala and for 28 other guest triplets of the 41 Gly-Xaa1-Xaa2 triplets studied in host-guest collagen-like peptides. […] Observed Tm values of Gly-Xaa1-Arg sequences (Gly-Glu-Arg, Gly-Ala-Arg, Gly-Lys-Arg, Gly-Gln-Arg, and Gly-Asp-Arg) were 2.5° C. smaller on average than predicted, indicating the need for a correction factor in a Gly-Xaa1-Arg context versus a Gly-Pro-Arg context.
Interactions between adjacent Gly-Xaa1-Xaa2 tripeptides were included in the calculations. One study reported stabilities of a selection of host-guest peptides including residues in two adjacent tripeptide units, Gly-Xaa1-Xaa2-Gly-Xaa1′-Xaa2′, covering possible direct interchain or intrachain interactions between residues that are separated by ≦3 residues in sequence (Persikov, et al. (2005) supra) (FIG. 1).

As for `CC(C)[C@H](NC(=O)[C@@H]1CCCN1C(=O)CNC(=O)[C@H](C)NC(=O)[C@@H]1CCCN1C(=O)CNC(=O)[C@H](C)NC(=O)[C@@H]1CCCN1C(=O)CN)C(=O)NCC(=O)N1CCC[C@H]1C(=O)N[C@@H](C)C(=O)NCC(=O)N[C@@H](C)C(=O)N[C@@H](CCCNC(=N)N)C(=O)NCC(=O)N1CCC[C@H]1C(=O)N[C@@H](C)C(=O)NCC(=O)N1CCC[C@H]1C(=O)N1C[C@H](O)C[C@H]1C(=O)NCC(=O)N1CCC[C@H]1C(=O)N1C[C@H](O)C[C@H]1C(=O)NCC(=O)N1CCC[C@H]1C(=O)N1C[C@H](O)C[C@H]1C(=O)NCC(=O)N1CCC[C@H]1C(=O)N1C[C@H](O)C[C@H]1C(=O)NCC(=O)N[C@@H](Cc1ccc(O)cc1)C(=O)O` [T1-892 unbl, GPA-GPA-GPV-GPA-GAR-GPA-(GPO)4-GY] (H-GPAGPAGPVGPAGARGPAGP[Hyp]GP[Hyp]GP[Hyp]GP[Hyp]GY-OH), in data set [1], the ΔTm was −3.2 °C. Further, the “Tm^obs” value in data set [2] was 20.6 °C.
Gly-Ala-Ala: the “deviation of observed Tm from predicted Tm of guest triplet” value in data set [3] was no more than 3 °C. Besides, the “experimentally observed Tm of Gly-Xaa1-Xaa2 tripeptide unit in a triple helix” value in data set [2] (host-guest peptide, (Gly-Pro-Hyp)8 host, c=1 mg/ml in phosphate-buffered saline, pH 7.0, heating rate 0.1° C./minute) stood at 32.9 °C.
For `CC(=O)NCC(=O)N1CCC[C@H]1C(=O)N[C@@H](C)C(=O)NCC(=O)N1CCC[C@H]1C(=O)N[C@@H](C)C(=O)NCC(=O)N1CCC[C@H]1C(=O)N[C@H](C(=O)NCC(=O)N1CCC[C@H]1C(=O)N[C@@H](C)C(=O)NCC(=O)N[C@@H](C)C(=O)N[C@@H](CCCNC(=N)N)C(=O)NCC(=O)N1CCC[C@H]1C(=O)N[C@@H](C)C(=O)NCC(=O)N1CCC[C@H]1C(=O)N1C[C@H](O)C[C@H]1C(=O)NCC(=O)N1CCC[C@H]1C(=O)N1C[C@H](O)C[C@H]1C(=O)NCC(=O)N[C@@H](C)C(=O)N1C[C@H](O)C[C@H]1C(=O)NCC(=O)N1CCC[C@H]1C(=O)N1C[C@H](O)C[C@H]1C(=O)NCC(=O)N[C@H](C(N)=O)C(C)C)C(C)C` [T1-892 (P26A), Ac-(GPA)2-GPV-GPA-GAR-GPA-(GPO)2-GAO-GPO-GV-NH2] (Ac-GPAGPAGPVGPAGARGPAGP[Hyp]GP[Hyp]GA[Hyp]GP[Hyp]GV-NH2), the ΔTm in data set [1] was 1.5 °C. Further, the “Tm^obs” value in data set [2] turned out to be 24.1 °C.
For `CC[C@H](C)[C@H](NC(=O)CNC(=O)[C@@H]1C[C@@H](O)CN1C(=O)[C@@H]1CCCN1C(=O)CNC(C)=O)C(=O)N[C@@H](CCCNC(=N)N)C(=O)NCC(=O)N1CCC[C@H]1C(=O)N[C@@H](CCCCN)C(=O)NCC(=O)N[C@@H](CCC(N)=O)C(=O)N[C@@H](CCCCN)C(=O)NCC(=O)N[C@@H](CCC(=O)O)C(=O)N1C[C@H](O)C[C@H]1C(=O)NCC(=O)N[C@@H](CC(C)C)C(=O)N1C[C@H](O)C[C@H]1C(=O)NCC(=O)N1CCC[C@H]1C(=O)N1C[C@H](O)C[C@H]1C(=O)NCC(=O)N1CCC[C@H]1C(=O)N1C[C@H](O)C[C@H]1C(=O)NCC(=O)N1CCC[C@H]1C(=O)N1C[C@H](O)C[C@H]1C(=O)NCC(=O)N1CCC[C@H]1C(=O)N1C[C@H](O)C[C@H]1C(=O)NCC(=O)N[C@@H](Cc1ccc(O)cc1)C(N)=O` [C1qC-67, Ac-GPO-GIR-GPK-GQK-GEO-GLO-(GPO)4-GY-NH2] (Ac-GP[Hyp]GIRGPKGQKGE[Hyp]GL[Hyp]GP[Hyp]GP[Hyp]GP[Hyp]GP[Hyp]GY-NH2), in that order: −1.4 °C and 28.4 °C.
Take `CC(=O)NCC(=O)N1CCC[C@H]1C(=O)N1C[C@H](O)C[C@H]1C(=O)NCC(=O)N1CCC[C@H]1C(=O)N1C[C@H](O)C[C@H]1C(=O)NCC(=O)N1CCC[C@H]1C(=O)N1C[C@H](O)C[C@H]1C(=O)NCC(=O)N[C@@H](C)C(=O)N[C@@H](CCCCN)C(=O)NCC(=O)N[C@@H](CC(=O)O)C(=O)N[C@@H](C)C(=O)NCC(=O)N1CCC[C@H]1C(=O)N1C[C@H](O)C[C@H]1C(=O)NCC(=O)N1CCC[C@H]1C(=O)N[C@@H](C)C(=O)NCC(=O)N1CCC[C@H]1C(=O)N1C[C@H](O)C[C@H]1C(=O)NCC(=O)N1CCC[C@H]1C(=O)N1C[C@H](O)C[C@H]1C(=O)NCC(=O)N1CCC[C@H]1C(=O)N1C[C@H](O)C[C@H]1C(=O)NCC(=O)N[C@@H](Cc1ccc(O)cc1)C(N)=O` [T1-655, Ac-(GPO)3-GAK-GDA-GPO-GPA-(GPO)3-GY-NH2] (Ac-GP[Hyp]GP[Hyp]GP[Hyp]GAKGDAGP[Hyp]GPAGP[Hyp]GP[Hyp]GP[Hyp]GY-NH2): in data set [1], the ΔTm is 0.1 °C. In addition, the “Tm^obs” value in data set [2] came to 42.8 °C.
